Reference: patent publication US10760110B2, “Antibiotic testing and screening system” (priority 2017, dated 2020)
≈ marks a conversion by molar mass, not a printed value. Like-named read-outs stand apart in the source and are kept apart here.

Experiments:
Settings in all cases: Klebsiella pneumoniae
[1] = system: K. pneumoniae NVT1001 and its ΔompK35/36 and/or ΔramR mutants; experiment: Etest MIC, OmpK35/36 loss and AcrAB-TolC overexpression (ΔramR) strains (Table 6); assay type: cell-based, Klebsiella pneumoniae
Outline: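 Ceftazidime and cefotaxime were tested by CLSI broth microdilution on the blaOXA-48 pACYC177 transformant of NVT1001, using CLSI 2017 breakpoints. Parent, porin-deleted (ΔompK35/36) and ΔramR strains were tested by Etest, with values between two-fold dilutions rounded up.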

[2] = system: K. pneumoniae NVT1001 ΔramRΔompK35/36 mutant and its revertants; experiment: Etest MIC, ΔramRΔompK35/36 mutant and its revertants (Table 7); assay type: cell-based
[3] = system: K. pneumoniae NVT1001 strains with carbapenemase plasmids; experiment: Etest MIC of β-lactams, OmpK35/36 loss, ΔramR and/or carbapenemase (Table 9); assay type: cell-based, Klebsiella pneumoniae
Description: DNA fragments of the resistance genes along with their flanking regions were amplified from clinical plasmids via PCR with specific primer pairs. The resulting PCR fragments were digested and then cloned into the plasmid pACYC177 or pACYC184. The resulting plasmids were then transformed into K. pneumoniae strain NVT1001 via electroporation. The recombinant bacteria were plated onto LB agar plates containing kanamycin (50 mg/L) or chloramphenicol (50 mg/L), and the presence of the cloned gene was confirmed via PCR and DNA sequencing.
The MICs of antibiotics were determined using the Etest (Biodisk AB, Sweden) according to the manufacturer's instructions. The MICs from the Etest, which fall between standard two-fold dilutions, were rounded up to the next highest two-fold value. The MICs of ceftazidime and cefotaxime against K. pneumoniae NVT1001 harbouring the pACYC177 plasmid with blaOXA-48 were further determined using a broth microdilution test according to the recommendations of the CLSI,^25 and the results were interpreted according to the breakpoints established by the CLSI in 2017.^25 Meanwhile, due to the lack of CLSI breakpoints in 2016 and 2017, the results for cephalothin were interpreted according to the breakpoints established by the CLSI in 2015,^26 and the results for moxifloxacin were interpreted according to the breakpoints established by the EUCAST in 2017.^27

[4] = ΔramRΔ35/36, ΔramRΔompK35/36 mutant
[5] = ΔramRΔompK35/36::ompK35/36 revertant
[6] = ΔramRΔompK35/36::ompK35 revertant
[7] = ΔramRΔompK35/36::ompK36 revertant
[8] = ΔramRΔompK35/36::ramR revertant
[9] = ΔramRΔompK35/36::ramR::ompK35/36 revertant
[10] = ΔramRΔompK35/36::ramR::ompK35 revertant
[11] = ΔramRΔompK35/36::ramR::ompK36 revertant

CO/N=C(\C(=O)N[C@@H]1C(=O)N2C(C(=O)O)=C(COC(C)=O)CS[C@H]12)c1csc(N)n1 [Cefotaxime]
MIC ([1]; WT, NVT1001, read-out: MIC): 0.06 µg/mL (≈ 0.132 µM)
MIC ([1]; Δ35, ΔompK35 mutant): 0.125 µg/mL (≈ 0.274 µM)
MIC ([1]; Δ35/36, ΔompK35/36 mutant): 2 µg/mL (≈ 4.39 µM)
MIC ([1]; Δ36, ΔompK36 mutant): 0.25 µg/mL (≈ 0.549 µM)
MIC ([1]; ΔramR mutant): 1 µg/mL (≈ 2.2 µM)
MIC ([1]; ΔramRΔ35, ΔramRΔompK35 mutant): 1 µg/mL (≈ 2.2 µM)
MIC [1, 4]: 4 µg/mL (≈ 8.78 µM)
MIC ([1]; ΔramRΔ36, ΔramRΔompK36 mutant): 4 µg/mL (≈ 8.78 µM)
MIC [2, 5]: 1 µg/mL
MIC [2, 6]: 4 µg/mL
MIC [2, 7]: 1 µg/mL
MIC [2, 8]: 2 µg/mL
MIC [2, 9]: 0.06 µg/mL
MIC [2, 10]: 0.25 µg/mL
MIC [2, 11]: 0.125 µg/mL
MIC ([2]; ΔramRΔompK35/36 mutant): 4 µg/mL
MIC ([3]; IMP-8 on pACYC177, WT (NVT1001), read-out: MIC): 64 µg/mL
MIC ([3]; IMP-8 on pACYC177, Δ35 (ΔompK35 mutant)): 128 µg/mL
MIC ([3]; IMP-8 on pACYC177, Δ35/36 (ΔompK35/36 mutant)): > 256 µg/mL
MIC ([3]; IMP-8 on pACYC177, Δ36 (ΔompK36 mutant)): 256 µg/mL
MIC ([3]; IMP-8 on pACYC177, ΔramR mutant): 128 µg/mL
MIC ([3]; IMP-8 on pACYC177, ΔramRΔ35 (ΔramRΔompK35 mutant)): 128 µg/mL
MIC ([3]; IMP-8 on pACYC177, ΔramRΔ35/36 (ΔramRΔompK35/36 mutant)): 256 µg/mL
MIC ([3]; IMP-8 on pACYC177, ΔramRΔ36 (ΔramRΔompK36 mutant)): 256 µg/mL
MIC ([3]; KPC-2 on pACYC177, WT (NVT1001), read-out: MIC): 128 µg/mL
MIC ([3]; KPC-2 on pACYC177, Δ35 (ΔompK35 mutant)): 256 µg/mL
MIC ([3]; KPC-2 on pACYC177, Δ35/36 (ΔompK35/36 mutant)): > 256 µg/mL
MIC ([3]; KPC-2 on pACYC177, Δ36 (ΔompK36 mutant)): 256 µg/mL
MIC ([3]; KPC-2 on pACYC177, ΔramR mutant): 256 µg/mL
MIC ([3]; KPC-2 on pACYC177, ΔramRΔ35 (ΔramRΔompK35 mutant)): 256 µg/mL
MIC ([3]; KPC-2 on pACYC177, ΔramRΔ35/36 (ΔramRΔompK35/36 mutant)): > 256 µg/mL
MIC ([3]; KPC-2 on pACYC177, ΔramRΔ36 (ΔramRΔompK36 mutant)): > 256 µg/mL
MIC ([3]; KPC-3 on pACYC177, WT (NVT1001), read-out: MIC): 128 µg/mL
MIC ([3]; KPC-3 on pACYC177, Δ35 (ΔompK35 mutant)): 256 µg/mL
MIC ([3]; KPC-3 on pACYC177, Δ35/36 (ΔompK35/36 mutant)): > 256 µg/mL
MIC ([3]; KPC-3 on pACYC177, Δ36 (ΔompK36 mutant)): 256 µg/mL
MIC ([3]; KPC-3 on pACYC177, ΔramR mutant): 256 µg/mL
MIC ([3]; KPC-3 on pACYC177, ΔramRΔ35 (ΔramRΔompK35 mutant)): 256 µg/mL
MIC ([3]; KPC-3 on pACYC177, ΔramRΔ35/36 (ΔramRΔompK35/36 mutant)): > 256 µg/mL
MIC ([3]; KPC-3 on pACYC177, ΔramRΔ36 (ΔramRΔompK36 mutant)): > 256 µg/mL
MIC ([3]; NDM-1 on pACYC177, WT (NVT1001), read-out: MIC): 256 µg/mL
MIC ([3]; NDM-1 on pACYC177, Δ35 (ΔompK35 mutant)): 256 µg/mL
MIC ([3]; NDM-1 on pACYC177, Δ35/36 (ΔompK35/36 mutant)): > 256 µg/mL
MIC ([3]; NDM-1 on pACYC177, Δ36 (ΔompK36 mutant)): > 256 µg/mL
MIC ([3]; NDM-1 on pACYC177, ΔramR mutant): > 256 µg/mL
MIC ([3]; NDM-1 on pACYC177, ΔramRΔ35 (ΔramRΔompK35 mutant)): > 256 µg/mL
MIC ([3]; NDM-1 on pACYC177, ΔramRΔ35/36 (ΔramRΔompK35/36 mutant)): > 256 µg/mL
MIC ([3]; NDM-1 on pACYC177, ΔramRΔ36 (ΔramRΔompK36 mutant)): > 256 µg/mL
MIC ([3]; OXA-48 on pACYC177, WT (NVT1001), read-out: MIC): 2 µg/mL
MIC ([3]; OXA-48 on pACYC177, Δ35 (ΔompK35 mutant)): 4 µg/mL
MIC ([3]; OXA-48 on pACYC177, Δ35/36 (ΔompK35/36 mutant)): 32 µg/mL
MIC ([3]; OXA-48 on pACYC177, Δ36 (ΔompK36 mutant)): 16 µg/mL
MIC ([3]; OXA-48 on pACYC177, ΔramR mutant): 4 µg/mL
MIC ([3]; OXA-48 on pACYC177, ΔramRΔ35 (ΔramRΔompK35 mutant)): 4 µg/mL
MIC ([3]; OXA-48 on pACYC177, ΔramRΔ35/36 (ΔramRΔompK35/36 mutant)): 32 µg/mL
MIC ([3]; OXA-48 on pACYC177, ΔramRΔ36 (ΔramRΔompK36 mutant)): 32 µg/mL
MIC ([3]; VIM-1 on pACYC177, WT (NVT1001), read-out: MIC): > 256 µg/mL
MIC ([3]; VIM-1 on pACYC177, Δ35 (ΔompK35 mutant)): > 256 µg/mL
MIC ([3]; VIM-1 on pACYC177, Δ35/36 (ΔompK35/36 mutant)): > 256 µg/mL
MIC ([3]; VIM-1 on pACYC177, Δ36 (ΔompK36 mutant)): > 256 µg/mL
MIC ([3]; VIM-1 on pACYC177, ΔramR mutant): > 256 µg/mL
MIC ([3]; VIM-1 on pACYC177, ΔramRΔ35 (ΔramRΔompK35 mutant)): > 256 µg/mL
MIC ([3]; VIM-1 on pACYC177, ΔramRΔ35/36 (ΔramRΔompK35/36 mutant)): > 256 µg/mL
MIC ([3]; VIM-1 on pACYC177, ΔramRΔ36 (ΔramRΔompK36 mutant)): > 256 µg/mL
MIC ([3]; no supplemental plasmid, WT (NVT1001), read-out: MIC): 0.06 µg/mL
MIC ([3]; no supplemental plasmid, Δ35 (ΔompK35 mutant)): 0.125 µg/mL
MIC ([3]; no supplemental plasmid, Δ35/36 (ΔompK35/36 mutant)): 2 µg/mL
MIC ([3]; no supplemental plasmid, Δ36 (ΔompK36 mutant)): 0.25 µg/mL
MIC ([3]; no supplemental plasmid, ΔramR mutant): 1 µg/mL
MIC ([3]; no supplemental plasmid, ΔramRΔ35 (ΔramRΔompK35 mutant)): 1 µg/mL
MIC ([3]; no supplemental plasmid, ΔramRΔ35/36 (ΔramRΔompK35/36 mutant)): 4 µg/mL
MIC ([3]; no supplemental plasmid, ΔramRΔ36 (ΔramRΔompK36 mutant)): 4 µg/mL

CCn1cc(C(=O)O)c(=O)c2ccc(C)nc21 [Nalidixic acid, nalidixic acid]
MIC ([1]; WT, NVT1001, read-out: MIC): 4 µg/mL (≈ 17.2 µM)
MIC ([1]; Δ35, ΔompK35 mutant): 8 µg/mL (≈ 34.4 µM)
MIC ([1]; Δ35/36, ΔompK35/36 mutant): 8 µg/mL (≈ 34.4 µM)
MIC ([1]; Δ36, ΔompK36 mutant): 4 µg/mL (≈ 17.2 µM)
MIC ([1]; ΔramR mutant): 32 µg/mL (≈ 138 µM)
MIC ([1]; ΔramRΔ35, ΔramRΔompK35 mutant): 64 µg/mL (≈ 276 µM)
MIC [1, 4]: 32 µg/mL (≈ 138 µM)
MIC ([1]; ΔramRΔ36, ΔramRΔompK36 mutant): 32 µg/mL (≈ 138 µM)
MIC [2, 5]: 64 µg/mL
MIC [2, 6]: 32 µg/mL
MIC [2, 7]: 64 µg/mL
MIC [2, 8]: 8 µg/mL
MIC [2, 9]: 8 µg/mL
MIC [2, 10]: 8 µg/mL
MIC [2, 11]: 8 µg/mL
MIC ([2]; ΔramRΔompK35/36 mutant): 32 µg/mL

CC1COc2c(N3CCN(C)CC3)c(F)cc3c(=O)c(C(=O)O)cn1c23 (centres unmarked) [Ofloxacin, ofloxacin]
MIC ([1]; WT, NVT1001, read-out: MIC): 0.25 µg/mL (≈ 0.692 µM)
MIC ([1]; Δ35, ΔompK35 mutant): 0.25 µg/mL (≈ 0.692 µM)
MIC ([1]; Δ35/36, ΔompK35/36 mutant): 0.25 µg/mL (≈ 0.692 µM)
MIC ([1]; Δ36, ΔompK36 mutant): 0.25 µg/mL (≈ 0.692 µM)
MIC ([1]; ΔramR mutant): 2 µg/mL (≈ 5.53 µM)
MIC ([1]; ΔramRΔ35, ΔramRΔompK35 mutant): 2 µg/mL (≈ 5.53 µM)
MIC [1, 4]: 2 µg/mL (≈ 5.53 µM)
MIC ([1]; ΔramRΔ36, ΔramRΔompK36 mutant): 2 µg/mL (≈ 5.53 µM)
MIC [2, 5]: 2 µg/mL
MIC [2, 6]: 2 µg/mL
MIC [2, 7]: 2 µg/mL
MIC [2, 8]: 0.25 µg/mL
MIC [2, 9]: 0.25 µg/mL
MIC [2, 10]: 0.25 µg/mL
MIC [2, 11]: 0.25 µg/mL
MIC ([2]; ΔramRΔompK35/36 mutant): 2 µg/mL
